In ChEMBL document CHEMBL3861967, “Cyclopeptide Alkaloids from Hymenocardia acida” (J Nat Prod, 2016):

Experiments:
[1] = Cytotoxicity against human MRC5 cells assessed as decrease in cell viability after 7 days by MTT assay; assay type: toxicity, cell-based
Plasmodium falciparum = assay: Antiplasmodial activity against chloroquine-resistant Plasmodium falciparum K1 infected in human erythrocytes assessed as reduction in parasitemia after 72 hrs by lactate dehydrogenase assay; assay type: functional, cell-based; conditions: K1, 72 h

SMILES | IC50 at 7 days [1] | IC50 (Plasmodium falciparum)
CCC(C)[C@@H](C(=O)N[C@H](C(=O)N[C@@H]1C(=O)N[C@@H](Cc2c[nH]c3ccccc23)C(=O)NCC(=O)c2ccc(cc2)OC1(C)C)C(C)C)N(C)C (stereo partly drawn) | 51.1 µM | 16.4 µM
CCC(C)[C@@H](C(=O)N[C@H](C(=O)N[C@@H]1C(=O)N[C@@H](Cc2c[nH]c3ccccc23)C(=O)NCC(O)c2ccc(cc2)OC1(C)C)C(C)C)N(C)C (stereo partly drawn) | > 64 µM | 17.5 µM
CCC(C)[C@H](NC(=O)[C@H](C(C)CC)N(C)C)C(=O)N[C@@H]1C(=O)N[C@@H](Cc2c[nH]cn2)C(=O)NCC(=O)c2ccc(cc2)O[C@H]1C(C)C (stereo partly drawn) | > 64 µM | 27.9 µM
CCC(C)[C@@H](C(=O)N[C@H](C(=O)N[C@@H]1C(=O)N[C@@H](Cc2c[nH]c3ccccc23)C(=O)NCC(=O)c2ccc(cc2)OC1(C)C)C(C)C)[N+](C)(C)[O-] (stereo partly drawn) | > 64 µM | 12.2 µM
